{"source": "paper PMC10762078", "about": "“Role of UPF1-LIN28A interaction during early differentiation of pluripotent stem cells” (Nature Communications, 2024)", "assay_type_in_all_cases": "cell-based, human", "key": {"CHA15 cells": {"tested_on": "CHA15 cells", "assay": "Immunostaining of SOX1, DLK1 and LHX2 during ectodermal differentiation (Fig. 7b)", "settings": "for DLK1 fluorescence quantification, mean / LHX2 fluorescence quantification, mean / SOX1 fluorescence quantification, mean: mean of set1-set4", "experimental": "(§1) For CPP-conjugated peptide delivery, HeLa, 293T, and PA-1 cells were incubated with CPP-conjugated peptides or CPP-FITC at 2 μM in DMEM with 10% FBS for 12 h a day before cell harvest. hPSCs were treated with CPP-conjugated peptides at 10 μM in mTeSR Plus Medium, and the peptide-containing medium was changed every day over 10 days. The ROCK inhibitor (Tocris Bioscience, Y-27632) treated-hPSCs were dissociated into single cells using Accutase (Merck, SCR005) and differentiated into ectoderm, mesoderm, and endoderm using the STEMdiff Trilineage Differentiation Kit ([…] Technologies, 05230) following the manufacturer’s protocol. Differentiated cells treated with CPP-conjugated peptides were analysed at 0, 3, and 5 days for ectoderm and endoderm, and at 0, 3, and 4 days for mesoderm.\nhPSCs or differentiated cells were fixed in 4% paraformaldehyde (Sigma-Aldrich). After 15–20 min, the cells were washed with 0.1% bovine serum albumin in phosphate-buffered saline (BSA/PBS) thrice and blocked for 1 h by adding 0.3% Triton X-100 (Sigma-Aldrich) and 10% normal goat serum (NGS; Fitzgerald industries, NG22S). After blocking, cells were incubated with the following primary antibodies: anti-UPF1 (Cell Signaling Technology, 12040; 1:500), LIN28A (Cell Signaling Technology, 3978; 1:500), OCT4 (Santa Cruz, sc-5279; 1:500), NANOG (Cell Signaling Technology, 4903; 1:500), DLK1 (GeneTex, GTX60511; 1:500), SOX1 (Cell Signaling Technology, 4194; 1:500), or LHX2 (GeneTex, GTX129241; 1:500). Primary antibodies were incubated overnight at 4 °C followed by incubation with the following secondary antibodies: Cy3 (Jackson ImmunoResearch, 115-165-146; 1:500) or Alexa Fluor 488 (Invitrogen, A-11008; 1:500) followed by the incubation with secondary fluorescence-conjugated antibodies for 1 h. The cells were mounted in […] with DAPI mounting medium (Vector Laboratories, H1200).\nImmunofluorescence staining, proximity ligation assay imaging, and cell-penetrating efficiency of CPP-FITC were imaged with a confocal laser scanning microscope (Leica, TSC SP5) or immunofluorescence microscope (Leica, DM5000B). Z-stacks were captured, with sections spanning the entire cell. The LAS X Life Science program was used to obtain the maximum intensity projections and cross-sections of the confocal images."}, "p-UPF1 (Ser1096)": {"tested_on": "p-UPF1 (Ser1096)", "assay": "Western blot of p-UPF1 (Ser1096) in CPP-peptide-treated hPSCs", "settings": "for p-UPF1 (Ser1096)/Calnexin, mean: relative to CPP-P1 = 100, n = 3", "experimental": "as §1\nProtein samples were loaded for electrophoresis on sodium dodecyl sulphate (SDS) polyacrylamide gels, followed by Coomassie blue staining or transferred to nitrocellulose membranes (Cytiva) for WB. After blocking with 5% non-fat milk (Cellconic) in Tris-buffered saline with Tween-20 for 30 min at room temperature, the membranes were incubated with the following primary antibodies: anti-FLAG (GenScript, A00187; 1:2000), UPF1 (Cell Signaling Technology, 12040; 1:4000), UPF2 (Cell Signaling Technology, 11875; 1:2000), eIF4E (Cell Signaling Technology, 2067; 1:2000), β-actin (Sigma-Aldrich, A2228; 1:4000), GST (Cytiva, 27-4577-01; 1:2000), MYC (Calbiochem, OP10; 1:2000), Calnexin (Cell Signaling Technology, 2679; 1:4000), LIN28A (Cell Signaling Technology, 3978; 1:2000), pSer1096 phosphorylated UPF1 (1:2000)[58], or p-Thr28 phosphorylated UPF1 (ImmuQuest, IQ653; 1:2000). Primary antibodies were incubated overnight at 4 °C and then washed thrice with TBS-T, followed by incubation with secondary antibodies: Goat anti-Rabbit IgG (Invitrogen, 31460; 1:4000), Goat anti-Mouse IgG (Invitrogen, 31430; 1:4000), or Horse anti-Goat IgG (Vector Laboratories, PI-9500; 1:4000) for 1 h at room temperature. For pull-downed protein detection, all primary and secondary antibodies were diluted at 1:10,000. The blots were imaged using ChemiDoc XRS+ System (Bio-Rad) and the greyscale intensity values were quantified using Image Lab 3.0 software (Bio-Rad).\nDAPI FITC Merge DAPI FITC Merge CHA15 H9 Pro2 H9\nNo peptide CPP-FITC Calnexin\nFor 2-day treatm ent For 4-day treatm ent […]\nStudent’s t-test was used. Data are presented as m ean values ± S.D (b) and mean values ± SEM (c and d). All statistical test us ed wer e two-s ided. T he m inim um num ber of independent biological replicate experim ents was a, b, and d n = 3, c n = 5. T he experim ents wer e conducted three tim es, each iteration producing consistent results. […]"}, "[1]": {"tested_on": "let-7a, let-7g, miR-16-5p and their targets in CHA15 cells", "assay": "RT-qPCR of mature LIN28A-regulated miRNAs and CDF of let-7-5p / miR-16-5p target mRNAs (Supplementary Fig. 6f)", "design": "key to let-7a level (RT-qPCR): relative level normalised to U6 snRNA", "settings": "for let-7a level (RT-qPCR): Fig. s6f, dot plots, CHA15 cells", "experimental": "cDNA was synthesised using RevertAid Reverse Transcriptase (Thermo Fisher Scientific, EP0441) with synthesised random hexamer (Macrogen) for total RNA or stem-loop primers for miRNA. For RT-qPCR reactions, the SensiFAST SYBR No-ROX kit (Meridian Bioscience) was used according to the manufacturer’s protocol. All data analysis and visualisation were conducted using R 3.6.1 [www.r-project.org] or GraphPad Prism 10. RT primers for miRNA and RT-qPCR primer sequences are provided in Supplementary Data 6.\nGenes regulated by miRNA let-7-5p and miR-16-5p were determined by TargetScanHuman. Among miRNA targets sorted by cumulative weighted context++ score (CWCS)[57], the 100 top genes were selected and analysed using CDF. […]\nScatter\n(bottom panel), respectively. f Levels of m ature endogenous m iRNAs in CHA15 cells, which were regulated by LIN28A, were assessed using RT -qPCR. Cum ulative f raction of log2 fold change in the expression of genes regulated by let-7-5p and m iR-16- 5p was shown as CDF graphs. T he relative level of m RNA was norm alised to that of U6 snRNA in (c, d, and f). K–S tests were used for e and f. Unpaired Student’s t-test was used for c , d, and f . * p < 0.05, ** p < 0.01, *** p < 0.001. Exact p -values were provided in Source data. Data are presented as m ean values ± SEM. All statistical test used were two- sided. T he m inim um num ber of independent biological replicate experim ents was a and e n = 2, b–d and f n = 3. T he experim ents were conducted three tim es, each iteration producing consistent results."}, "[2]": {"settings": "ectodermal differentiation, CHA15"}, "[3]": {"settings": "Fig 7b, vs. P1, ± SEM, unpaired t test, df=6"}}, "note": "Entries after “also recorded” stand apart in the source; their conditions may differ. Ends that are not written are not given here.", "data": [{"substance": "KKKWCRKKKSSADEKRYRALKRTAERELLMNA [CPP-P8, CPP conjugated to P8]", "values": [{"measurement": "DLK1 and LHX2 expression", "setting": "CHA15 cells; [2]", "result": "increased DLK1 and LHX2 expression"}, {"measurement": "SOX1 expression", "setting": "CHA15 cells; [2]", "result": "abrogated SOX1 expression"}, {"measurement": "phosphorylated UPF1", "setting": "p-UPF1 (Ser1096); CHA15 and Pro2 cells, 10 μM", "result": "increased phosphorylated UPF1 in CHA15 and Pro2 cells; also recorded: upregulation of p-UPF1 in CHA15 and Pro2 cells"}, {"measurement": "p-UPF1 levels after longer treatment", "setting": "p-UPF1 (Ser1096); H9, 4-day treatment", "result": "upregulates the levels of p-UPF1"}, {"measurement": "p-UPF1 levels", "setting": "p-UPF1 (Ser1096); H9 cells, short treatment, 10 μM", "result": "did not elicit a corresponding increase in p-UPF1 levels in H9 cells"}, {"measurement": "LIN28A-regulating miRNAs and their target mRNAs", "setting": "[1]; CHA15", "result": "did not alter the expression of LIN28A-regulating miRNAs and their target mRNAs"}]}, {"substance": "N-QKLDQKELQLEPM-C [P1, reference compound]", "values": [{"measurement": "DLK1 fluorescence quantification, mean", "setting": "CHA15 cells; Fig 7b", "result": 30.09}, {"measurement": "LHX2 fluorescence quantification, mean", "setting": "CHA15 cells; Fig 7b", "result": 34.79}, {"measurement": "SOX1 fluorescence quantification, mean", "setting": "CHA15 cells; Fig 7b", "result": 60.17}, {"measurement": "p-UPF1 (Ser1096)/Calnexin, mean", "setting": "p-UPF1 (Ser1096); CHA15, 2-day treatment", "result": 100, "unit": "%"}, {"measurement": "p-UPF1 (Ser1096)/Calnexin, mean", "setting": "p-UPF1 (Ser1096); H9, 2-day treatment", "result": 100, "unit": "%"}, {"measurement": "p-UPF1 (Ser1096)/Calnexin, mean", "setting": "p-UPF1 (Ser1096); H9, 4-day treatment", "result": 100, "unit": "%"}, {"measurement": "p-UPF1 (Ser1096)/Calnexin, mean", "setting": "p-UPF1 (Ser1096); Pro2, 2-day treatment", "result": 100, "unit": "%"}, {"measurement": "let-7a level (RT-qPCR)", "setting": "[1]; replicate 1", "result": 0.8272}, {"measurement": "let-7a level (RT-qPCR)", "setting": "[1]; replicate 2", "result": 1.208}, {"measurement": "let-7a level (RT-qPCR)", "setting": "[1]; replicate 3", "result": 0.9649}]}, {"substance": "N-MPELQKLQQLKDE-C [P2, peptide derived from the UPF1 (419–700) domain]", "values": [{"measurement": "let-7a level (RT-qPCR)", "setting": "[1]; replicate 1", "result": 0.9342}, {"measurement": "let-7a level (RT-qPCR)", "setting": "[1]; replicate 2", "result": 0.9709}, {"measurement": "let-7a level (RT-qPCR)", "setting": "[1]; replicate 3", "result": 0.9188}]}, {"substance": "KKKWCRKKKSSADEKRYRALKRTAERELLMNA [P8]", "values": [{"measurement": "DLK1 fluorescence quantification, mean", "setting": "CHA15 cells; Fig 7b", "result": 98}, {"measurement": "LHX2 fluorescence quantification, mean", "setting": "CHA15 cells; Fig 7b", "result": 65.64}, {"measurement": "SOX1 fluorescence quantification, mean", "setting": "CHA15 cells; Fig 7b", "result": 40.11}, {"measurement": "DLK1 fluorescence quantification, difference between means ± SEM", "setting": "CHA15 cells; [3]", "result": "67.91 ± 4.905"}, {"measurement": "LHX2 fluorescence quantification, difference between means ± SEM", "setting": "CHA15 cells; [3]", "result": "30.85 ± 5.040"}, {"measurement": "SOX1 fluorescence quantification, difference between means ± SEM", "setting": "CHA15 cells; [3]", "result": "-20.06 ± 8.048"}, {"measurement": "p-UPF1 (Ser1096)/Calnexin, mean", "setting": "p-UPF1 (Ser1096); CHA15, 2-day treatment", "result": 203, "unit": "%"}, {"measurement": "p-UPF1 (Ser1096)/Calnexin, mean", "setting": "p-UPF1 (Ser1096); H9, 2-day treatment", "result": 91, "unit": "%"}, {"measurement": "p-UPF1 (Ser1096)/Calnexin, mean", "setting": "p-UPF1 (Ser1096); H9, 4-day treatment", "result": 226, "unit": "%"}, {"measurement": "p-UPF1 (Ser1096)/Calnexin, mean", "setting": "p-UPF1 (Ser1096); Pro2, 2-day treatment", "result": 244, "unit": "%"}, {"measurement": "let-7a level (RT-qPCR)", "setting": "[1]; replicate 1", "result": 0.9027}, {"measurement": "let-7a level (RT-qPCR)", "setting": "[1]; replicate 2", "result": 0.8569}, {"measurement": "let-7a level (RT-qPCR)", "setting": "[1]; replicate 3", "result": 0.8754}]}]}
